Source: patent US20140154312A1, “ORAL TARGETTED DRUG DELIVERY SYSTEM” (priority 2010, published 2014)
“Also recorded” adds a separate entry of the source.

Tests used:
[1] = test system: colonic micro flora (caecal contents of the rat); experiment: In vitro dissolution (drug release) of natural gum based 5-FU delivery systems in medium containing caecal contents of orally treated rats; type: physicochemical, Wister Albino rats; conditions: label = treatment given p.o. to the rats whose caecal contents (4% w/v) were used, 5-FU 8 mg/day, probiotics 1 g/day, pH 1.2 for 2 h, pH 6.8 for 3 h, then caecal medium
Experimental: (§1) To answer the questions as above, the inventors adopted an innovative experimental approach using a ‘living biological system’ comprising rats. All the experimental procedures were approved by the Institutional Animal Ethics Committee vide Approval Number 954/ac/06/CPCSEA/09/19. The experimental study was conducted on thirty Wister Albino rats. The animals were divided into 6 groups of five each.
(§2) The dosages were freshly prepared every day by suspending in milk. They were administered by oral gavage needle for first and subsequent exposure for a duration of five days each, at an interval of 20 days.
2 animals from each group were humanely sacrificed for the collection of caecal contents in sterile petri plates, which was immediately utilized for the dissolution studies. For dissolution studies, compression coated tablets of 5-FU with natural gums and microspheres of 5-FU with natural gums were used. The experiments were carried out in 250 ml beaker immersed in water maintained in the jars of dissolution test apparatus. Initial studies were carried out in 150 ml of 0.1N HCl (pH 1.2) for 2 h. After this, NaOH was added to the dissolution media and the pH was adjusted to 6.8. The volume was made up to 200 ml with phosphate buffer of pH 6.8. The study was continued for 3 hours after which, caecal contents (4% w/v) were added. […]

[2] = test system: Albino Wister Rats; experiment: Unwanted side-effects on oral administration in rats (hair, body weight, diarrhea, caecal contents, colon histopathology); type: in vivo; conditions: p.o., 5-FU 8 mg/day for 5 days, probiotics 1 g/day where given
Experimental: as §1, §2
To address whether the unwanted side-effects of colonic drugs e.g. diarrhea, hair loss etc. could also be reduced or eliminated using the ‘innovative approach’ of the present invention, trials were conducted in animals (rats) using 5-FU as a ‘model’.

In the case of `O=c1[nH]cc(F)c(=O)[nH]1` [5-FU powder, 5-Fluorouracil], the “% drug released in 24 h on exposure to caecal contents of the rat: Compression coated tablets of 5-FU coated with natural gums” value ([1]; excipient-only control rats: 83) is reported as 52%, the “% drug released in 24 h on exposure to caecal contents of the rat: 5-FU loaded microspheres comprising the drug and natural gums” value ([1]; excipient-only control rats: 92.20) is reported as 41.56% and the body weight loss [2] is reported as “loss”. The diarrhea [2] was “bloody diarrhea”, the “histopathological examination of the colon” value [2] was “ulceration and loss of epithelial lining; also recorded: diffuse ulceration of the colonic mucosa with loss of lining epithelium” and the loss of hair [2] was “loss of hair”. The body weight loss ([2]; listed as 5-FU) was “loss of weight” and the loss of hair ([2]; listed as 5-FU) was “loss of weight and hair”.
